Here are results for six compounds from US10941114B2, “Small molecule lipid II inhibitors” (University Of Maryland, Baltimore, priority 2015, dated 2021).

For orientation: MIC means the smallest concentration in the dilution series that meets the test's criterion for growth inhibition. For orientation: half-life means how long it takes for the measured level to halve. Broadly, the AUC(0-inf) is total exposure, with the tail of the curve extrapolated. In general, Cmax refers to the highest concentration seen after dosing. What is called MRT is the average time that molecules of a dose stay in the body. As usually defined, the Vd is the apparent volume that relates the amount in the body to the concentration in plasma or blood. A word on the CC50: it is the concentration giving 50% cytotoxicity.

The conditions of data set [1]: in vivo.
Data set [2] concerns Enterococcus faecalis. The data set is described as follows: Antibacterial activity assay (MIC, broth dilution). In kind it is cell-based. The note with it: for MIC: Enterococcus faecalis, cation-adjusted Mueller Hinton broth, 10% BHI; for MIC Enterococcus faecalis: MMX#-ATCC# 101-29212; for MIC Enterococcus faecalis (VRE): MMX#-ATCC# 848-NA, vancomycin-resistant.
Data set [3] relates to Enterococcus faecium. As to the kind of experiment: Antibacterial activity assay (MIC, broth dilution). In kind it is cell-based. Also noted: Bacterial Killing E. faecium: unit: ug/mL. The procedure, abridged:
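Broth dilution MIC per CLSI (M07-A10) in cation-adjusted Mueller Hinton broth with 10% brain-heart infusion; MIC is the lowest concentration preventing visible growth, in μg/mL. Some compounds were run by broth microdilution.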

Data set [4] relates to Streptococcus pneumoniae. As to the kind of experiment: Antibacterial activity assay (MIC, broth dilution). The following applies: for MIC Streptococcus pneumoniae (PRSP): MMX#-ATCC# 884-NA, penicillin-resistant; for MIC Streptococcus pneumoniae: MMX#-ATCC# 1195-49619. In kind it is cell-based.
Data set [5] has as its system Bacillus anthracis. It is filed as cell-based.
Data set [6] concerns Yersinia pestis. In kind it is cell-based. The note with it: CO92; according to DOD guidelines.
Data set [7] concerns Staphylococcus aureus. As to the kind of experiment: Antibacterial activity assay (MIC, broth dilution). In kind it is cell-based. Also noted: S. aureus Killing / Bacterial Killing S. aureus: unit not given here. The note with it: for MIC Staphylococcus aureus: MMX#-ATCC# 100-29213; for MIC: Staphylococcus aureus. In general terms: In broth dilution the organism is exposed to a series of concentrations in liquid medium.

Data set [8] can be described thus: In vivo efficacy of BAS00127538 (bacteria in spleen and blood). The note with it: samples collected at 50 hours post-infection from treated animals. Here is the method:
To determine the efficacy of […] in vivo, samples were collected from vehicle-treated animals at 20 hours or at 50 hours post-infection from vancomycin- and BAS-treated animals.

Data set [9] concerns Burkholderia mallei. In kind it is cell-based. The note with it: 23344; according to DOD guidelines.
In data set [10] the test system is Escherichia coli. The data set is described as follows: Antibacterial activity assay (MIC, broth dilution). The following applies: for MIC Escherichia coli: MMX#-ATCC# 102.25922. It is filed as cell-based.
Data set [11] is described as follows: in vivo. The note with it: CD1, mouse, plasma, iv.
The test system of data set [12] is Pseudomonas aeruginosa. As to the kind of experiment: Antibacterial activity assay (MIC, broth dilution). It is filed as cell-based. The note with it: MMX#-ATCC# 103-27853.
In data set [13] the test system is Burkholderia pseudomallei. In kind it is cell-based. The note with it: K96243; according to DOD guidelines.
Data set [14] can be described thus: Pharmacokinetic study in mice (plasma concentration by LC/MS/MS).
The nature of data set [15]: in vivo. The note with it: both, ICR, mouse.
In data set [16] the test system is HeLa cells. The data set is described as follows: Cytotoxicity testing (CC50, MTS assay). (Tetrazolium dyes change colour on reduction, which living cells bring about.)
Data set [17] relates to Acinetobacter baumannii. The data set is described as follows: Antibacterial activity assay (MIC, broth dilution). The note with it: Acinetobacter baumannii. It is filed as cell-based. An outline of the steps: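 Broth dilution and broth microdilution following CLSI standards (M07, eighth and tenth editions). MIC taken as the lowest compound concentration preventing visible bacterial growth.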

Data set [18] in a line: Cytotoxicity testing (CC50, MTS assay). The note with it: human.
Data set [19] is described as follows: Liver microsome stability testing. The note with it: positive control; human liver microsomes. It is filed as in vitro ADME. Here is the method: The in vitro microsome stability assay was performed using human liver microsomes and a Biomek FXP™ liquid handling workstation to deliver reagents to a deep 96-well plate on a shaking peltier with temperature controls. Human liver microsomes were purchased from Corning™. The test compound was incubated in an aqueous reaction mixture (200 μL total volume) consisting of human liver microsomes (150 mixed donor pool) and NADPH Regenerating System Solutions A and B (Corning™) in the presence of 100 mM potassium phosphate buffer (pH 7.4). NADPH Regenerating System Solution A comprises nicotinamide adenine dinucleotide phosphate (NADP+) and glucose 6-phosphate; NADPH Regenerating System Solution B contains glucose-6-phosphate dehydrogenase. Solutions A and B were combined prior to adding to the reaction plate to generate a supply of NADPH. The NADPH was added last to initiate the reactions simultaneously. The final concentration of the test compound was 10 μM and the microsomal protein concentration was 0.5 mg/mL. […]
The half-life (t½) was calculated using the following equation:
[formula] where “slope” is the slope of the line formed by ln(% remaining test compound) vs. time. The in vitro intrinsic clearance (CLint) was calculated using equation: […]
(In general: Liver microsomes are a subcellular fraction often used to study metabolism.)

Setting [20] is: IV administration, single dose […], mice (n=3).
[21] abbreviates: determined as in Example 1E (MIC).
[22] abbreviates: ATCC 1509 / VRE, text: E. faecium EF1509 (VRE), footnote: Enterococcus faecalis ATCC 1509, average of two replicates, read-out: MIC EF.
[23] abbreviates: Enterococcus faecium, Table 16, CLSI M07-A10 dilution method, read-out: MIC E. faecium.
[24] abbreviates: A. baumannii 2-2-2 (colistin-resistant clinical isolate), average of two replicates, read-out: MIC AB.
The mark [25] stands for this setting: Table 16, CLSI M07-A10 dilution method, read-out: MIC A. baumannii.
Setting [26] is: S. aureus USA300 (MRSA), average of two replicates, read-out: MIC SA.
Where [27] appears, read: Table 16, CLSI M07-A10 dilution method, read-out: MIC S. aureus.

The structures appear in SMILES notation. Values after ≈ are worked out from the molar mass of the structure shown. Counter-ions that a name gives are not always drawn. Like-named read-outs stand apart in the source and are kept apart here. Bounds are passed on as bounds.

As for `CN1/C(=C/C=C/c2cc(-c3ccccc3)cc(-c3ccccc3)[o+]2)C(C)(C)c2ccccc21` [BAS00127538, 1-methyl-2,4-diphenyl-6-((1E,3E)-3-(1,3,3-trimethylindolin-2-ylidene)pro-p-1-en-1yl)pyryl-1-ium) tetrafluoroborate], in [1] (mouse, po, 5 mg/kg), the detection in plasma result was “could not be detected”. The MIC in data set [2] (read-out: MIC E. faecalis 51299) came out at 2 µg/mL; in data set [2] (read-out: MIC E. faecalis 51575), 2 µg/mL; in data set [2] (read-out: MIC E. faecalis C99707) it was 2 µg/mL; in [3] (Enterococcus faecium, cation-adjusted Mueller Hinton broth, 10% BHI, read-out: MIC E. faecium C110914), 2 µg/mL; in [3] (Enterococcus faecium, cation-adjusted Mueller Hinton broth, 10% BHI, read-out: MIC E. faecium IH79985) it was 2 µg/mL; in [3] (Enterococcus faecium, cation-adjusted Mueller Hinton broth, 10% BHI, read-out: MIC E. faecium S1559) it was 2 µg/mL. In data set [2], this compound came in with an MIC Enterococcus faecalis of 1 µg/mL. Besides, in [2], the MIC Enterococcus faecalis (VRE) is 1 µg/mL. The MIC Streptococcus pneumoniae (PRSP) in data set [4] stood at 8 µg/mL. For the same compound, in [4], the MIC Streptococcus pneumoniae came out at 8 µg/mL. The MIC Bacillus anthracis (spores)* in [5] (Ames, spores, according to DOD guidelines) was determined as 0.5 µg/mL. Further, in data set [5] (Ames, according to DOD guidelines), the MIC Bacillus anthracis* was 0.5 µg/mL. The compound also registered an MIC Bacillus anthracis Sterne in [5] (MMX#-ATCC# 109-NA) of 0.5 µg/mL. The compound also returned an MIC Yersinia pestis* in data set [6] of 8 µg/mL. Further, the MIC Staphylococcus aureus in [7] is 0.5 µg/mL. The “survival of treated animals” value in data set [8] is reported as “One animal treated with BAS did not survive beyond 28 hours”. This compound also displayed an MIC Burkholderia mallei* in data set [9] greater than 64 µg/mL. Also, in data set [10], the MIC Escherichia coli turned out to be 4 µg/mL. Besides, the half-life in [11] (male, […]) is 0.22 h. Also, the MIC Pseudomonas aeruginosa in [12] is greater than 8 µg/mL. The MIC Burkholderia pseudomallei* in data set [13] is 64 µg/mL. In addition, in data set [14] (setting [20]), the Cl_obs turned out to be 711 mL/min/kg. In addition, the T1/2 in data set [14] (setting [20]) was 0.227 h; in data set [14] (comparator values repeated from Table 4 (IV, […])), 0.227 h. In data set [14] (setting [20]), this compound returned a Vss_obs of 12.2 L/kg. In data set [14] (comparator values repeated from Table 4 (IV, […]), AUClast/D), this compound gave an AUClast/D of 26.9 ng·h/mL. Moreover, in [14] (intravenous administration, single dose […], mice), the volume of distribution was 12.2 L/kg.
In data set [1] (CD1, mouse, iv, 10 mg/kg), `CN(C)c1ccc(/C=C/c2cc(-c3ccc(F)cc3)cc(-c3ccc(F)cc3)[o+]2)cc1` [Compound 7jc47-1, (E)-2-(4-(dimethylamino)styryl)-4,6-bis(4-fluorophenyl) pyrylium boron tetrafluoride salt] came in with an AUCextrap of 2.25 ± 1.13% and a Cl3 of 23.6 ± 1.7 mL/min/kg. In addition, in data set [3] (setting [21]), the “Bacterial Killing E. faecium” value came out at 1. The compound further registered an MTD at 72 h in data set [15] of 60 mg/kg. The “Bacterial Killing S. aureus” value in data set [7] (setting [21]) was 1. For the same compound, the cytotoxicity in vitro result in data set [16] is on record as “no observable cytotoxicity in vitro”. Moreover, in data set [10] (setting [21]), the “Bacterial Killing E. coli” value is greater than 64. In data set [11] (10 mg/kg), this compound displayed an AUC(0-inf) of 578 ± 175 ng·h/mL, a peak concentration (Cmax) of 3220 ± 1500 ng/mL, an MRT of 1.74 ± 0.49 h and a volume of distribution (Vd) of 46.3 ± 12.9 L/kg. In [11] (10 mg/kg), the half-life was roughly 7 h. In data set [14] (mouse, in vivo, iv, 10 mg/kg), this compound came in with a T1/2 of 6.81 ± 1.33 h.
As for `Cc1ccc(-c2cc(-c3ccc(Br)cc3)cc(/C=C/c3ccc(N(C)C)cc3)[n+]2C)c(C)c1.[I-]` [Compound 9s, (E)-4-(4-bromophenyl)-2-(4-(dimethylamino)styryl)-6-(2,4-dimethylphenyl)-1-methylpyridin-1-ium iodide], the minimal inhibitory concentration (MIC) in data set [3] (setting [22]) stood at 1 µg/mL; in [3] (setting [23]) it was 1 µg/mL; in [17] (setting [24]), 16 µg/mL; in data set [17] (setting [25]), 16 µg/mL; in data set [7] (setting [26]) it was 0.25 µg/mL; in data set [7] (setting [27]), 0.25 µg/mL. In addition, the CC50 at 24 h in data set [18] turned out to be 3.5 µg/mL.
For the compound `CCN(CC)c1ccc(/C=C/c2cc(-c3ccc(Br)cc3)cc(-c3ccc(C)c(C)c3)[n+]2C)cc1.[I-]` [Compound 9v, (E)-4-(4-bromophenyl)-2-(4-(diethylamino)styryl)-6-(3,4-dimethylphenyl)-1-methylpyridin-1-ium iodide], the MIC in data set [3] (setting [22]) was determined as 4 µg/mL; in [3] (setting [23]) it was 4 µg/mL; in [17] (setting [24]) it was 4 µg/mL; in data set [17] (setting [25]), 4 µg/mL; in [7] (setting [26]) it was 2 µg/mL; in [7] (setting [27]), 2 µg/mL. In data set [18] (HeLa cells), this compound returned a CC50 at 24 h of 5.5 µg/mL.
For `CC(=O)NC[C@H]1CN(c2ccc(N3CCOCC3)c(F)c2)C(=O)O1` [Linezolid, linezolid, reference compound], in data set [2], the MIC Enterococcus faecalis came to 2 µg/mL (≈ 5.93 µM) and the MIC Enterococcus faecalis (VRE) turned out to be 2 µg/mL (≈ 5.93 µM). In [4], this compound registered an MIC Streptococcus pneumoniae (PRSP) of 2 µg/mL (≈ 5.93 µM) and an MIC Streptococcus pneumoniae of 2 µg/mL (≈ 5.93 µM). In [7], this compound yielded an MIC Staphylococcus aureus of 4 µg/mL (≈ 11.9 µM). Moreover, in data set [7] (MMX#-ATCC# 757-NA, methicillin-resistant), the MIC Staphylococcus aureus (MRSA) worked out at 4 µg/mL (≈ 11.9 µM). In data set [10], this compound showed an MIC Escherichia coli greater than 64 µg/mL. The compound further showed an MIC Pseudomonas aeruginosa in data set [12] greater than 64 µg/mL.
For the compound `COc1ccc2c(c1)[C@]13CCCC[C@@H]1[C@H](C2)N(C)CC3` [dextromethorphan], the intrinsic clearance in data set [19] was determined as 31 µL/min/mg.
